Measurements as given in patent US9527842B2, “Inhibitors of human immunodeficiency virus replication” (priority 2013, dated 2016).
Where two headings read alike, the source gives them in different places.

Columns and labels:
[1] = rcm bond, 20-membered ring, Hoveyda-Grubbs II, then H2, Pd/C, then NaOH, DCE, 85.0 °C, 2.0 h, 3 steps
[2] = system: recombinant NL-Rluc virus; assay: Inhibition of HIV replication (NL-RLuc luciferase reporter virus in MT-2 cells); type: cell-based; conditions: Human immunodeficiency virus 1, MT2, 120 h

SMILES | EC50 [2] [nM] | also measured
COC(=O)[C@@H](OC(C)(C)C)c1c(C)cn2nc3cc2c1N1CCC(C)(CC1)OCC=CC[C@H](C)Oc1cccc(F)c1-c1cccc-3c1 |  | ring closure, yield after HPLC ([1]; from C=CCOC1(C)CCN(c2c([C@H](OC(C)(C)C)C(=O)OC)c(C)cn3nc(-c4cccc(-c5c(F)cccc5O[C@@H](C)CC=C)c4)cc23)CC1, 2.0 mM): 19.6%
Cc1cn2nc3cc2c(c1[C@H](OC(C)(C)C)C(=O)O)N1CCC(C)(CC1)OCCC[C@H](C)Oc1ccc(F)cc1-c1cccc-3c1 [Example 37, (2S)-2-(tert-Butoxy)-2-[(22S)-17-fluoro-4,22,27-trimethyl-21,26-dioxa-1,6,33-triazahexacyclo[25.2.2.1^6,^9.1^10,^14.0^2,^7.0^15,^20]tritriaconta-2,4,7,9(33),10(32),11,13,15(20),16,18-decaen-3-yl]acetic acid] | 29 | 
Cc1ccc2c(c1F)-c1cccc(c1)-c1cc3c(c([C@H](OC(C)(C)C)C(=O)O)c(C)cn3n1)N1CCC(C)(CC1)OCCCC[C@H](C)O2 [Example 39, (2S)-2-(tert-Butoxy)-2-[(22S)-16-fluoro-4,17,22,28-tetramethyl-21,27-dioxa-1,6,34-triazahexacyclo[26.2.2.1^6,^9.1^10,^14.0^2,^7.0^15,^20]tetratriaconta-2,4,7,9(34),10(33),11,13,15(20),16,18-decaen-3-yl]acetic acid] | 38 | 
Cc1cn2nc3cc2c(c1[C@H](OC(C)(C)C)C(=O)O)N1CCC(C)(CC1)OC/C=C/COc1ccccc1Cc1cnc-3s1 [Example 27, (2S)-2-(tert-Butoxy)-2-[(23E)-4,27-dimethyl-21,26-dioxa-32-thia-1,6,11,33-tetraazahexacyclo[25.2.2.1^6,^9.1^10,^13.0^2,^7.0^15,^20]tritriaconta-2,4,7,9 (33),10,12,15(20),16,18,23-decaen-3-yl]acetic acid] | 4 | 
CCC[C@H](C)Oc1cccc(F)c1-c1cccc(-c2cc3c(N4CCC(C)(O)CC4)c([C@H](OC(C)(C)C)C(=O)O)c(C)cn3n2)c1 [Example 35, (2S)-2-(tert-Butoxy)-2-[2-(3-{2-fluoro-6-[(2S)-pentan-2-yloxy]phenyl}phenyl)-4-(4-hydroxy-4-methylpiperidin-1-yl)-6-methylpyrazolo[1,5-a]pyridin-5-yl]acetic acid] | 607 | 
Cc1cn2nc3cc2c(c1[C@H](OC(C)(C)C)C(=O)O)N1CCC(C)(CC1)OCCCC[C@H](C)Oc1ccc(C#N)cc1-c1cccc-3c1 [Example 42, (2S)-2-(tert-Butoxy)-2-[(22S)-17-cyano-4,22,28-trimethyl-21,27-dioxa-1,6,34-triazahexacyclo[26.2.2.1^6,^9.1^10,^14.0^2,^7.0^15,^20]tetratriaconta-2,4,7,9 (34),10(33),11,13,15(20),16,18-decaen-3-yl]acetic acid] | 7 | 
Cc1cn2nc3cc2c(c1[C@H](OC(C)(C)C)C(=O)O)N1CCC(C)(CC1)OCCCC[C@H](C)Oc1cc(F)ccc1-c1cccc-3c1 [Example 38, (2S)-2-(tert-Butoxy)-2-[(22S)-18-fluoro-4,22,28-trimethyl-21,27-dioxa-1,6,34-triazahexacyclo[26.2.2.1^6,^9.1^10,^14.0^2,^7.0^15,^20]tetratriaconta-2,4,7,9 (34),10(33),11,13,15 (20),16,18-decaen-3-yl]acetic acid] | 30 | 
Cc1cn2nc(-c3ncc(Cc4ccc(F)cc4)s3)cc2c(N2CCC(C)(C)CC2)c1[C@H](OC(C)(C)C)C(=O)O [Example 4, (S)-2-(tert-Butoxy)-2-(4-(4,4-dimethylpiperidin-1-yl)-2-(5-(4-fluorobenzyl)thiazol-2-yl)-6-methylpyrazolo[1,5-a]pyridin-5-yl)acetic acid] | 18 | 
Cc1ccc2c(c1)-c1cccc(c1)-c1cc3c(c([C@H](OC(C)(C)C)C(=O)O)c(C)cn3n1)N1CCC(C)(CC1)OCCCCC[C@H](C)O2 [Example 30, (2S)-2-(tert-Butoxy)-2-[(22S)-4,17,22,29-tetramethyl-21,28-dioxa-1,6,35-triazahexacyclo[27.2.2.1^6,^9.1^10,^14.0^2,^7.0^15,^20]pentatriaconta-2,4,7,9 (35),10(34),11,13,15(20),16,18-decaen-3-yl]acetic acid] | 84 | 
Cc1ccc2c(c1)-c1cccc(c1)-c1cc3c(c([C@H](OC(C)(C)C)C(=O)O)c(C)cn3n1)N1CCC(C)(CC1)OCCC[C@@H](C)CO2 (single isomer, unassigned) [Example 33] | 116 | 
Cc1cn2nc(-c3ncc(Cc4ccc(F)cc4)o3)cc2c(N2CCC(C)(C)CC2)c1[C@H](OC(C)(C)C)C(=O)O [Example 5, (S)-2-(tert-Butoxy)-2-(4-(4,4-dimethylpiperidin-1-yl)-2-(5-(4-fluorobenzyl)oxazol-2-yl)-6-methylpyrazolo[1,5-a]pyridin-5-yl)acetic acid] | 5 | 
COC(=O)[C@@H](OC(C)(C)C)c1c(C)cn2nc3cc2c1N1CCC(C)(CC1)OCC=CC[C@H](C)Oc1cc(F)ccc1-c1cccc-3c1 |  | ring closure, yield after HPLC ([1]; from C=CCOC1(C)CCN(c2c([C@H](OC(C)(C)C)C(=O)OC)c(C)cn3nc(-c4cccc(-c5ccc(F)cc5O[C@@H](C)CC=C)c4)cc23)CC1, 1.57 mM): 49.8%
Cc1cc(CNC(=O)c2cc3c(-c4ccc5c6c(ccnc46)CCO5)c([C@H](OC(C)(C)C)C(=O)O)c(C)cn3n2)ccc1F (atropisomer, axis not shown) [Example 2, (2S)-2-(tert-Butoxy)-2-(4-(2,3-dihydropyrano[4,3,2-de]quinolin-7-yl)-2-((4-fluoro-3-methylbenzyl)carbamoyl)-6-methylpyrazolo[1,5-a]pyridin-5-yl)acetic acid] | 63 | 
Cc1cc(CNC(=O)c2cc3c(N4CCC(C)(C)CC4)c([C@H](OC(C)(C)C)C(=O)O)c(C)cn3n2)ccc1F [Example 3, (S)-2-(tert-Butoxy)-2-(4-(4,4-dimethylpiperidin-1-yl)-2-((4-fluoro-3-methylbenzyl)carbamoyl)-6-methylpyrazolo[1,5-a]pyridin-5-yl)acetic acid] | 17 | 
Cc1cc(CNC(=O)c2cc3c(-c4cc(F)c5c(c4C)CCCO5)c([C@H](OC(C)(C)C)C(=O)O)c(C)cn3n2)ccc1F [Example 1] | 3 | 
C=CCOC1(C)CCN(c2c([C@H](OC(C)(C)C)C(=O)O)c(C)cn3nc(-c4cccc(Br)c4)cc23)CC1 [Example 28, (S)-2-(4-(4-(Allyloxy)-4-methylpiperidin-1-yl)-2-(3-bromophenyl)-6-methylpyrazolo[1,5-a]pyridin-5-yl)-2-(tert-butoxy)acetic acid] | 138 | 
Cc1ccc2c(c1)-c1cccc(c1)-c1cc3c(c([C@H](OC(C)(C)C)C(=O)O)c(C)cn3n1)N1CCC(C)(CC1)OCCCC[C@H](C)O2 [Example 29, (2S)-2-(tert-Butoxy)-21[(22S)-4,17,22,28-tetramethyl-21,27-dioxa-1,6,34-triazahexacyclo[26.2.2.1^6,^9.1^10,^14.0^2,^7.0^15,^20]tetratriaconta-2,4,7,9 (34),10(33),11,13,15(20),16,18-decaen-3-yl]acetic acid] | 40 | 
Cc1ccc2c(c1)-c1cccc(c1)-c1cc3c(c([C@H](OC(C)(C)C)C(=O)O)c(C)cn3n1)N1CCC(C)(CC1)OCCC[C@H](C)CO2 (single isomer, unassigned) [Example 32] | 178 | 
Cc1cn2nc3cc2c(c1[C@H](OC(C)(C)C)C(=O)O)N1CCC(C)(CC/C=C/COc2cc(F)ccc2CNC3=O)CC1 [Example 26, (2S)-2-(tert-Butoxy)-2-[(21E)-16-fluoro-4,25-dimethyl-10-oxo-19-oxa-1,6,11,30-tetraazapentacyclo[23.2.2.1^6,^9.0^2,^7.0^13,^18]triaconta-2,4,7,9(30),13(18),14,16,21-octaen-3-yl]acetic acid] | 6 | 
CCCOC1(C)CCN(c2c([C@H](OC(C)(C)C)C(=O)O)c(C)cn3nc(-c4cccc(-c5c(O[C@@H](C)CCC)ccc(C)c5F)c4)cc23)CC1 [Example 41, (2S)-2-(tert-Butoxy)-2-[2-(3-{2-fluoro-3-methyl-6-[(2S)-pentan-2-yloxy]phenyl}phenyl)-6-methyl-4-(4-methyl-4-propoxypiperidin-1-yl)pyrazolo[1,5-a]pyridin-5-yl]acetic acid] | 728 | 
Cc1ccc2c(c1F)-c1cccc(c1)-c1cc3c(c([C@H](OC(C)(C)C)C(=O)O)c(C)cn3n1)N1CCC(C)(CC1)OCCCC[C@@H](C)O2 [Example 40, (2S)-2-(tert-Butoxy)-2-[(22R)-16-fluoro-4,17,22,28-tetramethyl-21,27-dioxa-1,6,34-triazahexacyclo[26.2.2.1^6,^9.1^10,^14.0^2,^7.0^15,^20]tetratriaconta-2,4,7,9(34),10(33),11,13,15(20),16,18-decaen-3-yl]acetic acid] | 2350 | 
Cc1cn2nc3cc2c(c1[C@H](OC(C)(C)C)C(=O)O)N1CCC(C)(CC1)OCCCC[C@H](C)Oc1ccc(F)cc1-c1cccc-3c1 [Example 36, (2S)-2-(tert-Butoxy)-2-[(22S)-17-fluoro-4,22,28-trimethyl-21,27-dioxa-1,6,34-triazahexacyclo[26.2.2.1^6,^9.1^10,^14.0^2,^7.0^15,^20]tetratriaconta-2,4,7,9(34),10(33),11,13,15(20),16,18-decaen-3-yl]acetic acid] | 50 | 
Cc1cn2nc3ccccc3c2c(-c2cc(F)c3c(c2C)CCCO3)c1[C@H](OC(C)(C)C)C(=O)O [Example 25, (2S)-2-(tert-Butoxy)-2-(10-(8-fluoro-5-methylchroman-6-yl)-8-methylpyrido[1,2-b]indazol-9-yl)acetic acid] | 37 | 
Cc1ccc2c(c1)-c1cccc(c1)-c1cc3c(c([C@H](OC(C)(C)C)C(=O)O)c(C)cn3n1)N1CCC(C)(CC1)OCCCCC[C@@H](C)O2 (single isomer, unassigned) [Example 31] | 258 | 
Cc1cn2nc3cc2c(c1[C@H](OC(C)(C)C)C(=O)O)N1CCC(C)(CC1)OCCCC[C@H](C)Oc1cccc(F)c1-c1cccc-3c1 [Example 34, (2S)-2-(tert-Butoxy)-2-[(22S)-16-fluoro-4,22,28-trimethyl-21,27-dioxa-1,6,34-triazahexacyclo[26.2.2.1^6,^9.1^10,^14.0^2,^7.0^15,^20]tetratriaconta-2,4,7,9(34),10(33),11,13,15(20),16,18-decaen-3-yl]acetic acid] | 14 | 
